Assay results reported in article PMC9865188 (Pharmaceutics, 2023).
Where two headings read alike, the source gives them in different places.

Assays:
[1] = Nonspecific zosuquidar adsorption to glass HPLC vials; assay type: physicochemical; settings: for nonspecific zosuquidar adsorption: 25% methanol in HEPES HBSS pH 7.4; for zosuquidar concentration found (theoretical 250 nM): HEPES HBSS pH 7.4 in glass vial
Experimental: Generally, when zosuquidar was diluted in aqueous solutions, less zosuquidar than expected was present according to HPLC-FL quantitation, when compared to the corresponding dilutions in water–organic solvent mixtures. […] These were further diluted in methanol or DMSO to 100 µM. For adsorption experiments, solutions of 0.5–49.5% v/v methanol or DMSO in HEPES HBSS pH 7.4 were prepared, along with HEPES HBSS pH 7.4 supplemented with 0.10, 1.0, 2.5, 5.0, 10, or 50 µM polysorbate 20 or 0.05% bovine serum albumin, as well as 10 mM MES HBSS pH 6.5, 10 mM ammonium acetate pH 4.5, 19 mM maleic acid buffer pH 6.5, and FaSSIF-V2. […] The vials were capped and vortexed for 1 min and equilibrated at ambient temperature for approximately 24 h before HPLC-FL analysis. The peak area of the samples was normalised to the peak area of control samples, which were considered to elicit 0% adsorption. […] Both vials were equilibrated at room temperature for at least 24 h. […] The solutions in both vials were then analysed directly by HPLC-FL.

[2] = Pharmacokinetic study in Sprague Dawley rats (oral gavage); assay type: in vivo; settings: for AUC(0-t) / Cmax / bioavailability / half-life: male, Sprague-Dawley, rat, plasma, po; for AUC(0-t): Zosuquidar AUC0–6h; for Cmax: Zosuquidar Cmax; for bioavailability: Zosuquidar bioavailability; for half-life: Zosuquidar t½
Experimental: The study was conducted according to the European Convention for the Protection of Vertebrate Animals used for Experimental and other Scientific Purposes (ETS no. 123) and Belgian law controlling the experiments on animals (Royal Decree of 29 May 2013 for the protection of laboratory animals). Animals were allowed minimum five days to acclimatise upon arrival from the supplier, and they were housed in polysulphone cages (58 × 52 × 20 cm) in groups of six provided with wooden sticks for enrichment. Animals had free access to Safe 04 Maintenance Diet (Safe, Rosenberg, Germany) and water during acclimatisation and during the study.
Male Sprague Dawley rats (Charles River, Dortmund, Germany) weighing 293–358 g were randomly assigned into six groups of six animals. Formulations were prepared as clear solutions in 40% v/v ethanol–water and 10 mL/kg was administered to each animal by oral gavage. […] Plasma samples were taken by tail vein puncture with a needle followed by collection in 32–64 µL micro haematocrit tubes (Vitrex Medical, Herlev, Denmark) at times 15, 30, and 45 min and 1, 2, 3, 4, and 6 h. Samples were centrifuged, and plasma was transferred into 10 µL end-to-end pipettes (Vitrex Medical, Herlev, Denmark) and immediately frozen at −80 °C until bioanalysis. Immediately after the study, animals were euthanised according to the principles of euthanasia stated in the AVMA Guidelines for the Euthanasia of Animals (American Veterinary Medical Association, 2020). Plasma samples were analysed by a previously described qualified LC-MS/MS method.
Pharmacokinetic parameters were calculated individually for each animal subject and pooled for statistical analysis. The plasma concentration at 15 min (C15min) was reported as an average of the plasma concentration of the six animals in each group. […] Elimination rate constants (ke) were calculated by linear regression of the linear part of the ln(plasma concentration) versus time profiles, and plasma half-life (t½) was calculated from ke:(3) t½=ln (2)/ke

[3] = HEPES HBSS pH 7.4 + 5 or 10 µM polysorbate 20, 1% methanol, or 1% DMSO
Experimental: Samples were shaken on a vertical rotator (10 rpm, PTR-60, Grant Instruments, Cambridge, UK) for approximately 72 h at ambient temperature. The suspensions were then centrifuged at ambient temperature (15,000 RCF, 10 min, Multifuge X1R, Thermo Fisher Scientific, Boston, MA, USA), and a sample of the supernatant was transferred and diluted 1:1 with mobile phase in a 2 mL glass HPLC vial and analysed by fluorescence-coupled HPLC (HPLC-FL).

[4] = cited from earlier work
[5] = molecular target: P-gp (Homo sapiens, UniProt P08183); experiment: Calcein-AM assay in MDCKII-MDR1 cells; assay type: cell-based; design: Piet Borst (Netherlands Cancer Institute); host or cells: MDCKII
Experimental: Before the experiment, growth medium was removed by vacuum suction (Vacusip, Integra Biosciences, NH, USA), 100 µL HEPES HBSS pH 7.4 was added to each well with a multichannel pipette, and the cells were incubated on a Talboys 1000 MP incubating microplate shaker (Troemner, NJ, USA, 220 rpm, 37 °C).
A total of 170 µL of the test solutions could then be transferred from the 96-well plate to the cell-containing plate at the start of preincubation. […] Wells containing HEPES HBSS pH 7.4 only served as a positive control. The cells were preincubated with test solutions (serial and spike) for 10 min on a microplate shaker (37 °C, 220 rpm). To start the experiment, 30 µL 33.3 µM calcein-AM in HEPES HBSS pH 7.4 was added to each well with a multichannel pipette, and the plate was stirred for 1 min on a microplate shaker (37 °C, 220 rpm) before being transferred to a Fluostar Omega plate reader.
One column of wells was kept without cells to measure background fluorescence signals from the applied buffers and compounds.

[6] = 2 mg/kg, group D: zosuquidar 2.0 mg/kg + etoposide 20 mg/kg + 5.0% v/v polysorbate 20 oral
[7] = 6.3 mg/kg, group E: zosuquidar 6.3 mg/kg + etoposide 20 mg/kg + 5.0% v/v polysorbate 20 oral
[8] = 6.3 mg/kg, group F: zosuquidar 6.3 mg/kg + etoposide 20 mg/kg + 10% v/v polysorbate 20 oral
[9] = group G*: zosuquidar 2.0 mg/kg + etoposide 20 mg/kg oral
[10] = group H*: zosuquidar 6.3 mg/kg + etoposide 20 mg/kg oral

Chain of P-gp (P08183 whole entry): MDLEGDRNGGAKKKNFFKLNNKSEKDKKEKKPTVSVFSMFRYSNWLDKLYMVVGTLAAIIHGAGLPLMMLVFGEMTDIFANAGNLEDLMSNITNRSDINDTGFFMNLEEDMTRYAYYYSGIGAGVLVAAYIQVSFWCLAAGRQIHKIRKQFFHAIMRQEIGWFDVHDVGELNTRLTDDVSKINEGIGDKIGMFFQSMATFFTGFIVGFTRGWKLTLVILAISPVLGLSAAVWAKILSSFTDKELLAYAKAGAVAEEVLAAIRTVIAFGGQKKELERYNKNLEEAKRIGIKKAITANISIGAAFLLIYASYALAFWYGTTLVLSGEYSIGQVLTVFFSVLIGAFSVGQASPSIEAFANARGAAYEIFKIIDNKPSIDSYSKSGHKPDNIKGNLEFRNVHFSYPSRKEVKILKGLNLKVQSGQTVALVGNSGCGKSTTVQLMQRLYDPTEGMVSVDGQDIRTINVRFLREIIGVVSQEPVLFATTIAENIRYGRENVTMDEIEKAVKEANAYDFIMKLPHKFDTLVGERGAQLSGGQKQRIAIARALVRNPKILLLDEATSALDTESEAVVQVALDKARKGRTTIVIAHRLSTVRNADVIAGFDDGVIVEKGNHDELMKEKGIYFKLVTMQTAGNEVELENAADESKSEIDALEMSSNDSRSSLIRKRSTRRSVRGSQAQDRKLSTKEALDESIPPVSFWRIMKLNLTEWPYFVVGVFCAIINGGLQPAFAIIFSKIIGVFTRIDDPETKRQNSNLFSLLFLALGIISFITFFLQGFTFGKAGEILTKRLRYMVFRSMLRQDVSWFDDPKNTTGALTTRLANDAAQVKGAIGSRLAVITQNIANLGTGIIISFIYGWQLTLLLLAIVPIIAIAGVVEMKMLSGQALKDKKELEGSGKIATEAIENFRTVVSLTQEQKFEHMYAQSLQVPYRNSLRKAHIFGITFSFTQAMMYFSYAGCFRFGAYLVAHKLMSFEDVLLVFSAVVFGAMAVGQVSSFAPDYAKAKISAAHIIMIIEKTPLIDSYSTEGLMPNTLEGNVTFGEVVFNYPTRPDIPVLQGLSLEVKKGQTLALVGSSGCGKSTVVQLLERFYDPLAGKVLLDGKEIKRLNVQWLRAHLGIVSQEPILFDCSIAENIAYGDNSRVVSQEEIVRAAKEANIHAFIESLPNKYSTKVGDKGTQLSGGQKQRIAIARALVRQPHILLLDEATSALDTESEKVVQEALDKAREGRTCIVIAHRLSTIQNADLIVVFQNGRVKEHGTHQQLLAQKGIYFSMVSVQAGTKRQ

Compound: O[C@@H](COc1cccc2ncccc12)CN1CCN([C@@H]2c3ccccc3[C@@H]3[C@H](c4ccccc42)C3(F)F)CC1 [zosuquidar]
- nonspecific zosuquidar adsorption ([1]; 500 nM zosuquidar): 2.19 ± 6.71%
- zosuquidar adsorption ([1]; 500 nM zosuquidar, 50% DMSO in HEPES HBSS pH 7.4): −5.9 ± 1.1%
- zosuquidar adsorption ([1]; 500 nM zosuquidar, FaSSIF-V2 pH 6.5): 13.6 ± 1.0%
- zosuquidar adsorption ([1]; 500 nM zosuquidar, HEPES HBSS pH 7.4 + 0.5% methanol): 97.0 ± 0.6%
- nonspecific zosuquidar adsorption ([1]; 0.75 µM zosuquidar): 6.83 ± 2.33%
- nonspecific zosuquidar adsorption ([1]; 2.5 µM zosuquidar): 2.76 ± 0.22%
- nonspecific zosuquidar adsorption ([1]; 7.5 µM zosuquidar): −0.10 ± 2.02%
- nonspecific zosuquidar adsorption ([1]; 25 µM zosuquidar): 32.5 ± 0.7%
- zosuquidar concentration found (theoretical 250 nM) ([1]; after transfer to a new vial): 38.1 ± 13.7 nM
- zosuquidar concentration found (theoretical 250 nM) ([1]; without transfer): 282 ± 8 nM
- Zosuquidar AUC0–6h ([2]; group B: zosuquidar 0.63 mg/kg + etoposide 20 mg/kg + 1.0% v/v polysorbate 20 oral): BLQ
- Zosuquidar tmax, median [Q1; Q3] ([2]; group E: zosuquidar 6.3 mg/kg + etoposide 20 mg/kg + 5.0% v/v polysorbate 20 oral): 60 [56;120] min
- AUC(0-t) [2, 6]: 18.9 ± 2.8 ng·h/mL
- Cmax [2, 6]: 4.8 ± 0.5 ng/mL
- bioavailability [2, 6]: 5.64 ± 0.83%
- half-life [2, 6]: 3 ± 0.383 h
- AUC(0-t) [2, 7]: 47 ± 3.7 ng·h/mL
- AUC(0-t) [2, 8]: 56.8 ± 4.2 ng·h/mL
- Cmax [2, 7]: 13.2 ± 1 ng/mL
- Cmax [2, 8]: 16.6 ± 1.1 ng/mL
- bioavailability [2, 7]: 4.45 ± 0.35%
- bioavailability [2, 8]: 5.38 ± 0.4%
- half-life [2, 7]: 2.53 ± 0.333 h
- half-life [2, 8]: 2.45 ± 0.167 h
- effect on solubility [3]: did not significantly affect
- Zosuquidar AUC0–6h ([4]; group F*: zosuquidar 0.63 mg/kg + etoposide 20 mg/kg oral): BLQ
- Zosuquidar AUC0–6h [4, 9]: 8.67 ± 0.77 ng·h/mL
- Zosuquidar Cmax [4, 9]: 2.10 ± 0.27 ng/mL
- Zosuquidar bioavailability [4, 9]: 2.58 ± 0.23%
- Zosuquidar tmax, median [Q1; Q3] [4, 9]: 120 [45;135] min
- Zosuquidar t½ [4, 9]: 3.62 ± 0.45 h
- Zosuquidar AUC0–6h [4, 10]: 43.6 ± 5.4 ng·h/mL
- Zosuquidar Cmax [4, 10]: 10.9 ± 1.2 ng/mL
- Zosuquidar bioavailability [4, 10]: 4.12 ± 0.51%
- Zosuquidar tmax, median [Q1; Q3] [4, 10]: 90 [45;120] min
- Zosuquidar t½ [4, 10]: 2.68 ± 0.217 h
- mean P-gp activity ([5]; […] zosuquidar + 2.5 µM polysorbate 20, spike method): 61%
- mean P-gp activity ([5]; […] zosuquidar + 5 µM polysorbate 20, spike method): 46%
- discrepancy of IC50, serial dilution vs spike method ([5]; calcein-AM, zosuquidar alone): 60 fold
